Consider one compound from patent US9650361B2, “N-(pyridin-2-yl)pyrimidin-4-amine derivatives containing a sulfoximine group” (BAYER PHARAM AKTIENGESELLSCHAFT, priority 2012, dated 2017).

Molecules are shown by their SMILES. Values after ≈ are worked out from the molar mass of the structure shown.

Data set [1] in a line: Equilibrium shake flask solubility assay, thermodynamic solubility in water (Method 4a). It counts as physicochemical. To be noted: aqueous buffer, thermodynamic from solid; phosphate buffer pH 6.5, 24 h, room temperature. The procedure:
4. Equilibrium Shake Flask Solubility Assay:
4a) Thermodynamic Solubility in Water
The thermodynamic solubility of compounds in water was determined by an equilibrium shake flask method (see for example: E. H. Kerns, L. Di: Drug-like Properties: Concepts, Structure Design and Methods, 276-286, Burlington, Mass., Academic Press, 2008). A saturated solution of the drug was prepared and the solution was mixed for 24 h to ensure that equilibrium was reached. The solution was centrifuged to remove the insoluble fraction and the concentration of the compound in solution was determined using a standard calibration curve. To prepare the sample, 2 mg solid compound was weighed in a 4 mL glass vial. 1 mL phosphate buffer pH 6.5 was added. The suspension was stirred for 24 hrs at room temperature. The solution was centrifuged afterwards. To prepare the sample for the standard calibration, 2 mg solid sample was dissolved in 30 mL acetonitrile. After sonification the solution was diluted with water to 50 mL. Sample and standards were quantified by HPLC with UV-detection. For each sample two injection volumes (5 and 50 μl) in triplicates were made. Three injection volumes (5 μl, […]) were made for the standard. […]
The areas of sample- and standard injections as well as the calculation of the solubility value (in mg/l) were determined by using HPLC software (Waters Empower 2 FR).

In data set [2] the target is T1, human carbonic anhydrase-2 (Homo sapiens, UniProt P00918).
T1 construct: purchased Sigma C6165
Description: Carbonic anhydrase assay, carbonic anhydrase-2 (Method 6). It counts as biochemical. The note with it: read-out: Inhibition of Carbonic anhydrase-2 IC50. The procedure:
(§1) 6. Carbonic Anhydrase Assay
(§2) The principle of the assay is based on the hydrolysis of 4-nitrophenyl acetate by carbonic anhydrases (Pocker & Stone, Biochemistry, 1967, 6, 668), with subsequent photometric determination of the dye product 4-nitrophenolate at 400 nm by means of a 96-channel spectral photometer.
(§3) 2 μL of the test compounds, dissolved in DMSO (100-fold final concentration), in a concentration range of 0.03-10 μmol/L (final), was pipetted as quadruplicates into the wells of a 96-hole microtiter plate. Wells that contained the solvent without test compounds were used as reference values (1. Wells without carbonic anhydrase for correction of the non-enzymatic hydrolysis of the substrate, and 2. Wells with carbonic anhydrase for determining the activity of the non-inhibited enzyme).
(§4) 188 μL of assay buffer (10 mmol/L of Tris/HCl, pH 7.4, 80 mmol/L of NaCl), with or without 3 units/well of carbonic anhydrase-1 [=human carbonic anhydrase-1 (Sigma, #C4396)] in order to determine carbonic anhydrase-1 inhibition or 3 units/well of carbonic anhydrase-2 [=human carbonic anhydrase-2 (Sigma, #C6165)] for measuring carbonic anhydrase-2 inhibition, was pipetted into the wells of the microtiter plate.

The target of data set [3] is T2, human carbonic anhydrase-1 (Homo sapiens, UniProt P00915).
T2 construct: purchased Sigma C4396
As to the kind of experiment: Carbonic anhydrase assay, carbonic anhydrase-1 (Method 6). It counts as biochemical. To be noted: read-out: Inhibition of Carbonic anhydrase-1 IC50. The procedure:
as §1, §2, §3, §4

T2 sequence (P00915 whole entry): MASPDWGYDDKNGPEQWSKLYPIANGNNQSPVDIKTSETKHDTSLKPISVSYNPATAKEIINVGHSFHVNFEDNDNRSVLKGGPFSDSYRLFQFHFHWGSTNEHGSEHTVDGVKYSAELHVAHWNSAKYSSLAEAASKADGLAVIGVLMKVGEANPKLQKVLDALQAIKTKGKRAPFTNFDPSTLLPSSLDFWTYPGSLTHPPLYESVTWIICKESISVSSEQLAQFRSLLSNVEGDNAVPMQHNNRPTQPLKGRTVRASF

The compound `COc1cc(F)ccc1-c1cc(Nc2cc(CS(C)(=N)=O)ccn2)ncn1` (racemic) [Example 1, (rac)-6-(4-Fluoro-2-methoxyphenyl)-N-{4-[(S-methylsulfonimidoyl)methyl]pyridin-2-yl}pyrimidin-4-amine] showed a solubility at 24 h in data set [1] of 7 µg/mL (≈ 18.1 µM). The IC50 in data set [2] and in data set [3] was > 10 µM each time.
